# Reference: US8609870B2, “Treating various disorders using TrkB agonists” (Emory University, priority 2008, dated 2013)
# Key:
# hippocampal neurons = experiment: Oxygen-glucose deprivation (OGD) apoptosis in hippocampal neurons; assay type: cell-based
# [1] = biological target: TrkB extra-cellular domain (ECD) (Homo sapiens, UniProt Q16620); experiment: [3H]-deoxygedunin ligand binding assay, TrkB ECD (Scatchard plot)
# Method: Purified TrkB ECD or ICD proteins (10 μg/each) were incubated with different [^3H-deoxygedunin] in 1 ml binding buffer (0.05 M Na/K phosphate buffer (pH 7.1), 200 mM NaCl) (1 nM [^3H]deoxygedunin˜82300 cpm) at 4° C. for 10 minutes. After incubation, the reaction mixture was loaded on filter paper and washed with 3×5 ml Tris buffer (100 mM Tris, pH 7.1). The dried filter paper was put into a small vial and subjected to liquid scintillation counter analysis. The value of the dissociation constant and the number of sites were obtained from Scatchard plots by using the equation r/[L]free=n/Kd−r/Kd, where r is the ratio of the concentration of bound ligand to the total protein concentration and n is the number of binding sites.
# To determine whether an identified active compound physically and directly binds to the TrkB receptor, in vitro binding assays can be conducted with purified TrkB extracellular domain (ECD) and intracellular domain (ICD) recombinant proteins. Purified TrkB ECD and ICD (10 μg of each) are incubated with different concentrations of ^3H-labeled identified active compound in 1 ml of binding buffer (0.05M Na/K phosphate buffer, pH 7.1, 200 mM NaCl) at 4° C. for 10 minutes. After the incubation, the reaction mixture is loaded on filter paper. The mixture is washed three times with Tris buffer (100 mM Tris, pH 7.1), and the dried filter paper is put into a small vial and subjected to liquid scintillation counter analysis. […] The value of the dissociate constant and the number of sites will then be obtained from Scatchard plots using the equation r/[L]free=n/Kd−r/Kd, where r is the ratio of the concentration of bound ligand to the total protein concentration and n is the number of binding sites.
# (§1) To determine whether deoxygedunin binds the intra-cellular domain (ICD) or extra-cellular domain (ECD) of the TrkB receptor, ligand binding assays with [^3H]-deoxygedunin were performed. […] The coprecipitated HA-TrkB was also prominently tyrosine phosphorylated (see FIG. 14, 3rd panel).
# TrkB [2] = biological target: T1, TrkB (Homo sapiens, UniProt Q16620); experiment: TrkB dimerization assay (GST pull-down, transfected HEK293 cells); assay type: cell-based
# T1 construct: expressed in transfected cells; host or cells: HEK293
# Method: HEK293 cells transfected with GST-TrkB and HA-TrkA or TrkB were washed once in PBS, and lysed in 1 ml lysis buffer (50 mM Tris, pH 7.4, 150 mM NaCl, 1 mM EDTA, 0.5% Triton X-100, 1.5 mM Na3VO4, 50 mM NaF, 10 mM sodium pyrophosphate, 10 mM sodium β-glycerophosphate, 1 mM phenylmethylsulfonyl fluoride (PMSF), […], […] leupeptin, […] pepstatin A), and centrifuged for 10 minutes at 14,000×g at 4° C. The supernatant was then transferred to a fresh tube and transfected TrkB receptor was pulled down with glutathione beads. The coprecipitated proteins were resolved on SDS-PAGE. The samples were transferred to a nitrocellular membrane, and immunoblotting analysis was performed with a variety of antibodies.
# BDNF is known to bind the TrkB receptor and provoke its dimerization (Barbacid, J. Neurobiol., 25:1386-1403, 1994; Klein et al, Cell, 66:395-403, 1991). To explore whether an identified active compound triggers TrkB receptor dimerization, HEK293 cells are cotransfected with GST-TrkB and HA-TrkB or HA-TrkA. The cells then are treated with BDNF or an identified active compound (0.5 μM) for 30 minutes. […]
# Target sequence in this assay (Q16620 32-822, species assumed): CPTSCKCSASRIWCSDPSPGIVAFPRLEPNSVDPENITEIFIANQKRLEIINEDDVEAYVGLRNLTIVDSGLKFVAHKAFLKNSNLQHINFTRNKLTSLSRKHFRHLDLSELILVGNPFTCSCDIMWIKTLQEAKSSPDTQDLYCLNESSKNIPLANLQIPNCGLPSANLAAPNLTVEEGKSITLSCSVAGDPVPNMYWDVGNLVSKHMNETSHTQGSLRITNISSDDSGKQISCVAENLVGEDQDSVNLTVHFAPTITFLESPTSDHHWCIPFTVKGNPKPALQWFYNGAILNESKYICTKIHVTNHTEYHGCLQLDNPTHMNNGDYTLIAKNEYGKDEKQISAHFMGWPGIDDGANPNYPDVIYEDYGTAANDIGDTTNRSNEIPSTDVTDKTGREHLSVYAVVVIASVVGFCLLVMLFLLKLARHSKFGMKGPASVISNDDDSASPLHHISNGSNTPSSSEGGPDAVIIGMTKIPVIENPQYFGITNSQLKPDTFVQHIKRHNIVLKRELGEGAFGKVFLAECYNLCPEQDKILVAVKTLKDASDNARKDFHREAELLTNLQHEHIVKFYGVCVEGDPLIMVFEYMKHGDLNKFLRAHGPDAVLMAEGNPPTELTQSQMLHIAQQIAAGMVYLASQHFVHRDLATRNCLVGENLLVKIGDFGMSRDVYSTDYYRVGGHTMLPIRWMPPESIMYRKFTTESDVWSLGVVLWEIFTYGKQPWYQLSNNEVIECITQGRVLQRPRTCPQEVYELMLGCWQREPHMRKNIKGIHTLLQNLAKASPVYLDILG
# Target sequence in this assay (Q16620 32-822, species assumed): as above
# TrkB [3] = biological target: T1, TrkB; experiment: Tyrosine phosphorylation of TrkB in transfected HEK293 cells; assay type: cell-based
# From the text: To determine if an identified active compound promotes tyrosine phosphorylation of the other Trk receptors, HEK293 cells are transfected with various Trk receptors, which is followed by treatment with the identified active compound. Treatment with an identified active compound that elicits tyrosine phosphorylation in the TrkB receptor but not in the TrkA or TrkC receptor indicates an active compound.
# as §1
# Target sequence in this assay (Q16620 32-822, species assumed): as above
# TrkB [4] = biological target: T2, TrkB (Mus musculus, UniProt P15209); experiment: TrkB activation in BDNF cortex conditional knockout mice; assay type: in vivo; settings: 5 mg/kg i.p., sacrificed at 4 hours; wild-type and BDNF −/− mice
# T2 construct: Brain lysates were prepared and analyzed by immunoblotting; from tissue; host or cells: mouse brain
# T2 sequence (P15209 32-821): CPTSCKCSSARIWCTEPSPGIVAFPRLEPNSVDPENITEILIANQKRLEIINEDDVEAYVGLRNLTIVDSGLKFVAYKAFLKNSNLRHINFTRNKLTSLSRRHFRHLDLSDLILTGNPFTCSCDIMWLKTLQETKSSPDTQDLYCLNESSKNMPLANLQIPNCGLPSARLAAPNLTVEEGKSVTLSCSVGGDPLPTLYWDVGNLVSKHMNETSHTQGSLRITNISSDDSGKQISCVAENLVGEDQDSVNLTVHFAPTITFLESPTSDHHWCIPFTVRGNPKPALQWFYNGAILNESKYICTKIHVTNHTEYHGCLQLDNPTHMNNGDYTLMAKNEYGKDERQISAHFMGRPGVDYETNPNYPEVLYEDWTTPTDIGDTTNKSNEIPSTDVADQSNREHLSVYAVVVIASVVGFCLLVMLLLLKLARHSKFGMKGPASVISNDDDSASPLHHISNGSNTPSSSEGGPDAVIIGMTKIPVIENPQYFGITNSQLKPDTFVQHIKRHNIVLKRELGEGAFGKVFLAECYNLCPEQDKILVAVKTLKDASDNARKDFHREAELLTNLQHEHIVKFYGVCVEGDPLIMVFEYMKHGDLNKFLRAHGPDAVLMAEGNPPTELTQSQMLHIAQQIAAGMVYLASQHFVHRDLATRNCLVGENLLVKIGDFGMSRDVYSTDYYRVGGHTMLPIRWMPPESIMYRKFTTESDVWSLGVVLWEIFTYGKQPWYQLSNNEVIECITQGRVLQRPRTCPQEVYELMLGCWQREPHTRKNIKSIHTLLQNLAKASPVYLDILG
# From the text: The Cortex-Specific Cre mouse line was previously described as “transgenic line C” (Chhatwal et al., Gene Ther. 14, 575-583 (2007)). Briefly, coding sequence for Cre-recombinase (Cre-IRES-DsRed2) was placed downstream of a 3 kb cholecystokinin (CCK) promoter, linearized, purified, and microinjected into the pronuclei of one-cell C57/BL6 embryos, which were then implanted into pseudopregnant C57/BL6 females. Following verification of gene expression in the different transgenic lines (Chhatwal et al., Nat. Neurosci. 9, 870-872 (2006)), the cortex-specific “line C” was crossed to a floxed-stop lacZ reporter mouse line (Soriano, Nat. Genet., 21, 70-71 (1999)) as well as the floxed BDNF mouse line (Rios et al., Mol. Endocrinol., 15, 1748-1757 (2001)). Region specific Cre gene expression and BDNF deletion were confirmed with in situ hybridization, x-gal staining for β-galactosidase expression, and Western blot for BDNF protein levels.
# To examine whether deoxygedunin activating TrkB involved endogenous BDNF, BDNF conditional knockout mice with BDNF gene deletion limited to cortex (thus allowing normal development) were used. Deoxygedunin (5 mg/kg) was intraperitoneally injected into the BDNF cortex conditional knockout mice and the mice were sacrificed at 4 hours. […]
# C57BL/6 mice = experiment: KA-induced apoptosis in hippocampus (TUNEL staining); assay type: in vivo, mouse; settings: 5 mg/kg i.p. followed by 20 mg/kg KA, 5 days
# Sequence of TrkB extra-cellular domain (ECD) (Q16620 32-430 limits assumed): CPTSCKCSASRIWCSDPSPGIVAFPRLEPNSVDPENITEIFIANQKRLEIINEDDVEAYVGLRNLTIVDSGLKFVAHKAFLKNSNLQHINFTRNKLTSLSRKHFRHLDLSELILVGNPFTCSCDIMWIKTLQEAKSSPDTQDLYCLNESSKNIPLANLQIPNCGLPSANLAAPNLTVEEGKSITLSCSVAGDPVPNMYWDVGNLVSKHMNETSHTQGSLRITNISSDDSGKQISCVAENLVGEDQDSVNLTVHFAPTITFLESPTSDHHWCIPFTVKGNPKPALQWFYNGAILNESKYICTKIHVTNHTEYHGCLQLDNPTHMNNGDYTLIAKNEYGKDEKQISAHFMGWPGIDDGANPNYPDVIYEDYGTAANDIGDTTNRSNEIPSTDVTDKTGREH
structure (smiles),measurement,setting,value
CC(=O)O[C@@H]1C[C@H]2C(C)(C)C(=O)C=C[C@]2(C)[C@H]2CC[C@]3(C)C(=CC(=O)O[C@H]3c3ccoc3)[C@@]21C [deoxygedunin],protective effects on hippocampal neurons under OGD,hippocampal neurons; apoptotic ratio compared to BDNF and DMSO,potent protective effects
same,titration assay under OGD,hippocampal neurons; dose titration,protects neurons in a dose-dependent manner
same,Kd,"[1]; Scatchard plot analysis, read-out: binding constant Kd",1400 nM
same,major binding site in TrkB ECD (truncation assays),[1]; TrkB ECD truncation mutants,Ig2 domain
same,TrkB dimerization,TrkB [2],robustly provoked TrkB dimerization with an effect even stronger than BDNF
same,tyrosine phosphorylation in TrkB,TrkB [3],elicited tyrosine phosphorylation in TrkB
same,TrkB activation,TrkB [4],TrkB activation occurred in both wild-type and BDNF −/− mice
same,KA provoked apoptosis in the hippocampus (TUNEL staining),C57BL/6 mice,diminished
same,decrease of KA induced apoptosis in hippocampus,C57BL/6 mice,60%
